In US10590113B2, “6-hydroxy-4-oxo-1,4-dihydropyrimidine-5-carboxamides as APJ agonists” (priority 2016, dated 2020):
Where two headings read alike, the source gives them in different places.

Biological target: T1, human APJ receptor (Homo sapiens, UniProt P35414)
T1 construct: expressed in transfected cells; host or cells: HEK293
T1 sequence (P35414 1-380): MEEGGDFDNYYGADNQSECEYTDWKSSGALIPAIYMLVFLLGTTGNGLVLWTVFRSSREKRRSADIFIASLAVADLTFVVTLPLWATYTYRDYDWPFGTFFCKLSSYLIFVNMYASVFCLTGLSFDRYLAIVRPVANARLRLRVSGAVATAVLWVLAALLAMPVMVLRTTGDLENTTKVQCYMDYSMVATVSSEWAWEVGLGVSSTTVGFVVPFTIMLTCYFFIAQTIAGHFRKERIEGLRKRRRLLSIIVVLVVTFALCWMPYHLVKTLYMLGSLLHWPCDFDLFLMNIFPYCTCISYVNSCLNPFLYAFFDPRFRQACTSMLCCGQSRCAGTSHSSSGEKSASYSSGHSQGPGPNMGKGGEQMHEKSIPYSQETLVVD
Assay: Intracellular cAMP Accumulation Assay (APJ hcAMP, HTRF)
Assay type: cell-based
Conditions: read-out: hAPJ cAMP EC50 Potency range
Method: Intracellular cAMP Accumulation Assay
HEK293 cells stably expressing human APJ receptor were used to assess the activity of compounds. Cultured cells were detached and resuspended in the cAMP
Homogeneous Time-Resolved Fluorescence (HTRF) assay buffer (Cisbio cat; #62AM4PEJ). The assay was performed in 384-well assay plates (Perkin-Elmer; cat #6008289) according to assay protocol provided by the manufacturer. Serial dilutions of a compound together with assay buffer containing […] IBMX and 2 μM forskolin were added to each well containing 5,000 cells and incubated for 30 minutes at room temperature. Subsequently, cAMP D2 reagent was added in the lysis buffer followed by the EuK antibody (Cisbio; cat #62AM4PEJ) and incubated for 60 min. The fluorescence emission ratio was measured using fluorometer. The intracellular cAMP concentrations (compound-stimulated inhibition of forskolin-mediated cAMP production) were calculated by extrapolation from a standard curve using known cAMP concentrations. The EC50 values were obtained by fitting the data to a sigmoidal concentration-response curve with variable slope.
The EC50 value of each compound is presented at the end of the example description.
The biological activity of the exemplified compounds of this invention determined by the assay described above is shown at the end of each example.

[1] = human APJ, intracellular cAMP accumulation
[2] = human APJ, cAMP accumulation, potency range class

| SMILES | EC50 [1] | further results |
| --- | --- | --- |
| CC[C@@H](c1cc(F)cc(F)c1)n1c(-c2cnn(C)c2)nc(=O)c(C(=O)N2CCC(c3ncc(F)cc3F)C2)c1O (single isomer, unassigned) [Example 182] | 0.01 to 10 nM |  |
| CC[C@@H](c1cc(F)cc(F)c1)n1c(-c2nc(C)cs2)nc(=O)c(C(=O)N2CCC(c3ncccc3F)C2)c1O (single isomer, unassigned) [Example 204] | 0.01 to 10 nM |  |
| CC[C@@H](c1cc(F)cc(F)c1)n1c(-c2ccn(CC)n2)nc(=O)c(C(=O)N2CCC(c3ccc(F)cn3)C2)c1O (single isomer, unassigned) [Example 216] | 0.01 to 10 nM |  |
| CCCCc1nc(=O)c(C(=O)N2CCC(c3ncccc3F)C2)c(O)n1-c1c(OC)cccc1OC (single isomer, unassigned) [Example 367, 2-butyl-1-(2,6-dimethoxyphenyl)-5-(3-(3-fluoropyridin-2-yl)pyrrolidine-1-carbonyl)-6-hydroxypyrimidin-4(1H)-one] |  | EC50: 0.01 to 10 nM |
| COc1cccc(OC)c1-n1c(CCC2CC2)nc(=O)c(C(=O)N2CCC(c3ccc(Cl)cn3)C2)c1O (single isomer, unassigned) [Example 171, 5-[3-(5-chloropyridin-2-yl)pyrrolidine-1-carbonyl]-2-(2-cyclopropylethyl)-1-(2,6-dimethoxyphenyl)-6-hydroxy-1,4-dihydropyrimidin-4-one] | 0.01 to 10 nM |  |
| COc1cccc(OC)c1-n1c(COC(C)C)nc(=O)c(C(=O)N2CCC(c3ccc(F)cc3)C2)c1O (single isomer, unassigned) [Example 102, 1-(2,6-dimethoxyphenyl)-5-[3-(4-fluorophenyl)pyrrolidine-1-carbonyl]-6-hydroxy-2-[(propan-2-yloxy)methyl]-1,4-dihydropyrimidin-4-one] | 0.01 to 10 nM |  |
| CC[C@@H](c1cc(F)cc(F)c1)n1c(-c2ccn(C)n2)nc(=O)c(C(=O)N2CCC(c3ccc(F)cc3)C2)c1O (single isomer, unassigned) [Example 194] | 0.01 to 10 nM |  |
| CC[C@@H](c1cc(F)cc(F)c1)n1c(-c2ccn(C)n2)nc(=O)c(C(=O)N2CCC(c3ccc(F)cn3)C2)c1O (single isomer, unassigned) [Example 185] | 0.01 to 10 nM |  |
| CCCCc1nc(=O)c(C(=O)N2CC[C@H](c3ccccc3)C2)c(O)n1[C@H](COC)c1ccccc1 [Example 152, 2-butyl-6-hydroxy-3-[(1S)-2-methoxy-1-phenylethyl]-5-[(3R)-3-phenylpyrrolidine-1-carbonyl]-3,4-dihydropyrimidin-4-one] | 10 to 100 nM |  |
| CCCCc1nc(=O)c(C(=O)N2CC[C@@H](c3ccccc3)C2)c(O)n1[C@@H](C)c1cccc(C#N)c1 [Example 149, 3-[(1S)-1-{2-butyl-4-hydroxy-6-oxo-5-[(3S)-3-phenylpyrrolidine-1-carbonyl]-1,6-dihydropyrimidin-1-yl}ethyl]benzonitrile] | 10 to 100 nM |  |
| COc1ccccc1C1CCN(C(=O)c2c(O)n(-c3c(OC)cccc3OC)c(COC(C)C)nc2=O)C1 (single isomer, unassigned) [Example 160, 1-(2,6-dimethoxyphenyl)-6-hydroxy-5-[3-(2-methoxyphenyl)pyrrolidine-1-carbonyl]-2-[(propan-2-yloxy)methyl]-1,4-dihydropyrimidin-4-one] | 0.01 to 10 nM |  |
| CCCCc1nc(=O)c(C(=O)N2CC[C@H](c3ccccc3)C2)c(O)n1-c1c(OC)ncnc1OC [Example 113, 2-butyl-3-(4,6-dimethoxypyrimidin-5-yl)-6-hydroxy-5-[(3R)-3-phenylpyrrolidine-1-carbonyl]-3,4-dihydropyrimidin-4-one] | 0.01 to 10 nM |  |
| COc1cccc(OC)c1-n1c(COC(C)C)nc(=O)c(C(=O)N2CCC(c3cccc(F)c3)C2)c1O (single isomer, unassigned) [Example 95, 1-(2,6-dimethoxyphenyl)-5-[3-(3-fluorophenyl)pyrrolidine-1-carbonyl]-6-hydroxy-2-[(propan-2-yloxy)methyl]-1,4-dihydropyrimidin-4-one] | 0.01 to 10 nM |  |
| CC[C@@H](c1cc(F)cc(F)c1)n1c(-c2ccn(CC)n2)nc(=O)c(C(=O)N2CCC(c3ncc(F)cc3F)C2)c1O (single isomer, unassigned) [Example 215] | 0.01 to 10 nM |  |
| CCCCc1nc(=O)c(C(=O)N2CC[C@@H](c3ccccc3)C2)c(O)n1[C@@H](C)c1ccccc1 [Example 125, 2-butyl-6-hydroxy-3-[(1S)-1-phenylethyl]-5-[(3S)-3-phenylpyrrolidine-1-carbonyl]-3,4-dihydropyrimidin-4-one] | 0.01 to 10 nM |  |
| C=CCCc1nc(=O)c(C(=O)N2CC[C@H](c3ccccc3)C2)c(O)n1-c1c(C)cccc1OC [Example 35, (R)-2-(but-3-en-1-yl)-6-hydroxy-3-(2-methoxy-6-methylphenyl)-5-(3-phenylpyrrolidine-1-carbonyl)pyrimidin-4(3H)-one] | 0.01 to 10 nM |  |
| CC[C@@H](c1cc(F)cc(F)c1)n1c(-c2ccn(C)n2)nc(=O)c(C(=O)N2CCC(c3ccccc3OC)C2)c1O (single isomer, unassigned) [Example 195] | 0.01 to 10 nM |  |
| CCn1ccc(-c2nc(=O)c(C(=O)N3CC[C@H](c4ccccc4)C3)c(O)n2-c2c(OC)cccc2OC)n1 [Example 284, 1-(2,6-dimethoxyphenyl)-2-(1-ethyl-1H-pyrazol-3-yl)-6-hydroxy-5-[(3R)-3-phenylpyrrolidine-1-carbonyl]-1,4-dihydropyrimidin-4-one] |  | EC50 [2]: 0.01 to 10 nM |
| CC[C@@H](c1cc(F)cc(F)c1)n1c(-c2ccn(CC)n2)nc(=O)c(C(=O)N2CCC(c3ncc(Cl)cc3F)C2)c1O (single isomer, unassigned) [Example 214] | 0.01 to 10 nM |  |
| CCCCc1nc(=O)c(C(=O)N2CC[C@H](OCc3ccccc3)C2)c(O)n1-c1c(OC)cccc1OC [Example 63, 5-[(3S)-3-(benzyloxy)pyrrolidine-1-carbonyl]-2-butyl-1-(2,6-dimethoxyphenyl)-6-hydroxy-1,4-dihydropyrimidin-4-one] | 0.01 to 10 nM |  |
| CCCCc1nc(=O)c(C(=O)N2CCC(c3ccccc3F)C2)c(O)n1[C@@H](CC)c1ccccc1 (stereo partly drawn) [Example 114, 2-butyl-5-[3-(2-fluorophenyl)pyrrolidine-1-carbonyl]-6-hydroxy-3-[(1S)-1-phenylpropyl]-3,4-dihydropyrimidin-4-one] | 0.01 to 10 nM |  |
| COc1cccc(OC)c1-n1c(-c2ccc(Cl)nc2)nc(=O)c(C(=O)N2CCC(c3ccc(F)cc3F)C2)c1O (single isomer, unassigned) [Example 279, 2-(6-chloropyridin-3-yl)-5-[3-(2,4-difluorophenyl)pyrrolidine-1-carbonyl]-1-(2,6-dimethoxyphenyl)-6-hydroxy-1,4-hydropyrimidin-4-one] |  | EC50 [2]: 0.01 to 10 nM |
| COc1cccc(OC)c1-n1c(COC(C)(C)C)nc(=O)c(C(=O)N2CCC(c3ccccc3C#N)C2)c1O (single isomer, unassigned) [Example 368, 2-(1-(2-(tert-butoxymethyl)-1-(2,6-dimethoxyphenyl)-6-hydroxy-4-oxo-1,4-dihydropyrimidine-5-carbonyl)pyrrolidin-3-yl)benzonitrile] |  | EC50: 0.01 to 10 nM |
| COc1cccc(OC)c1-n1c(CCC2CC2)nc(=O)c(C(=O)N2CCN(Cc3cccc(F)c3F)CC2)c1O [Example 173, 2-(2-cyclopropylethyl)-5-{4-[(2,3-difluorophenyl)methyl]piperazine-1-carbonyl}-1-(2,6-dimethoxyphenyl)-6-hydroxy-1,4-dihydropyrimidin-4-one] | 0.01 to 10 nM |  |
| COc1cccc(OC)c1-n1c(CCC2CC2)nc(=O)c(C(=O)N2CC=C(c3ccc(Cl)cn3)C2)c1O [Example 172, 5-[3-(5-chloropyridin-2-yl)-2,5-dihydro-1H-pyrrole-1-carbonyl]-2-(2-cyclopropylethyl)-1-(2,6-dimethoxyphenyl)-6-hydroxy-1,4-dihydropyrimidin-4-one] | 0.01 to 10 nM |  |
| CCCCc1nc(=O)c(C(=O)N2CCC(c3ccccc3F)C2)c(O)n1-c1c(OC)cccc1OC (single isomer, unassigned) [Example 53, 2-butyl-1-(2,6-dimethoxyphenyl)-5-[3-(2-fluorophenyl)pyrrolidine-1-carbonyl]-6-hydroxy-1,4-dihydropyrimidin-4-one] | 0.01 to 10 nM |  |
| COc1cccc(OC)c1-n1c(CCC2CC2)nc(=O)c(C(=O)N2CC[C@H](c3ccccc3)C2)c1O [Example 96, 2-(2-cyclopropylethyl)-1-(2,6-dimethoxyphenyl)-6-hydroxy-5-[(3R)-3-phenylpyrrolidine-1-carbonyl]-1,4-dihydropyrimidin-4-one] | 0.01 to 10 nM |  |
| CCc1cccc(CC)c1-n1c(-c2ccn(CC(C)C)n2)nc(=O)c(C(=O)N2CCC(c3ncc(F)cc3F)C2)c1O (single isomer, unassigned) [Example 320, 1-(2,6-diethylphenyl)-5-[3-(3,5-difluoropyridin-2-yl)pyrrolidine-1-carbonyl]-6-hydroxy-2-[1-(2-methylpropyl)-1H-pyrazol-3-yl]-1,4-dihydropyrimidin-4-one] |  | EC50 [2]: 10 to 100 nM |
